Reference: ChEMBL document CHEMBL2163275, “The lipogenesis pathway as a cancer target” (J Med Chem, 2011)

Columns and labels:
ATP-citrate synthase [1] = target: T1, ATP-citrate synthase (Homo sapiens, UniProt P53396); assay: Inhibition of human recombinant ACLY
T1 sequence (P53396 whole entry): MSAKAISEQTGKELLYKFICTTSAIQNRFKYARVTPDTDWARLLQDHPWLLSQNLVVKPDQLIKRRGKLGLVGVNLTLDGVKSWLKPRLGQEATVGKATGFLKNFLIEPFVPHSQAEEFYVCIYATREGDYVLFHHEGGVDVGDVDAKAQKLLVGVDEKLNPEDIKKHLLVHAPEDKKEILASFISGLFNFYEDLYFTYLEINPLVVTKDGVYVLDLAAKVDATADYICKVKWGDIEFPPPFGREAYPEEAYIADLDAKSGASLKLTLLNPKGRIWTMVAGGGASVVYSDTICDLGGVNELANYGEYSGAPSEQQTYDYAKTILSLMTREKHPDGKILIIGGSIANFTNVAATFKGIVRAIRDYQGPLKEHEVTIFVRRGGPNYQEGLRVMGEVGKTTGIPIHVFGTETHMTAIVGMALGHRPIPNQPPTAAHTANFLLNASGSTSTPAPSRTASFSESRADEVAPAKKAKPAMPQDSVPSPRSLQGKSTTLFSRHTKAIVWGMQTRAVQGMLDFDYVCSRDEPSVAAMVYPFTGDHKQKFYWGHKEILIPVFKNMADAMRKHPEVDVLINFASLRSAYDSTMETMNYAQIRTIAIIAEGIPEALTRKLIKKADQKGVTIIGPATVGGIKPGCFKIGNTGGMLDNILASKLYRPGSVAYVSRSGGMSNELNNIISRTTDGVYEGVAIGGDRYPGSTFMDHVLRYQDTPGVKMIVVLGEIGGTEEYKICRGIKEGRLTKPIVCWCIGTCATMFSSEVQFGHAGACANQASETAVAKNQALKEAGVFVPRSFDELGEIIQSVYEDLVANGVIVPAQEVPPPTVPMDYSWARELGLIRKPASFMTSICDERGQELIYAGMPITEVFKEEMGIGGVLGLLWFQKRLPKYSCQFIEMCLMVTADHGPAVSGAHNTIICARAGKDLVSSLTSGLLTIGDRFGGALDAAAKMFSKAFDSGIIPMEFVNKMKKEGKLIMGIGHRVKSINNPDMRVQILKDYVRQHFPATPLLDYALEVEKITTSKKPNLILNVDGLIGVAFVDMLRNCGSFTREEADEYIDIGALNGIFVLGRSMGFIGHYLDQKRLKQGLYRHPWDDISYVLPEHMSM

[2] = Inhibition of duck liver FASN; set-up: species or system Anas platyrhynchos
[3] = Inhibition of duck liver FASN ketoreductase activity; set-up: species or system Anas platyrhynchos
Fatty acid synthase [4] = target: T2, Fatty acid synthase (Gallus gallus, UniProt P12276); assay: Inhibition of chicken liver FASN
T2 sequence (P12276 whole entry): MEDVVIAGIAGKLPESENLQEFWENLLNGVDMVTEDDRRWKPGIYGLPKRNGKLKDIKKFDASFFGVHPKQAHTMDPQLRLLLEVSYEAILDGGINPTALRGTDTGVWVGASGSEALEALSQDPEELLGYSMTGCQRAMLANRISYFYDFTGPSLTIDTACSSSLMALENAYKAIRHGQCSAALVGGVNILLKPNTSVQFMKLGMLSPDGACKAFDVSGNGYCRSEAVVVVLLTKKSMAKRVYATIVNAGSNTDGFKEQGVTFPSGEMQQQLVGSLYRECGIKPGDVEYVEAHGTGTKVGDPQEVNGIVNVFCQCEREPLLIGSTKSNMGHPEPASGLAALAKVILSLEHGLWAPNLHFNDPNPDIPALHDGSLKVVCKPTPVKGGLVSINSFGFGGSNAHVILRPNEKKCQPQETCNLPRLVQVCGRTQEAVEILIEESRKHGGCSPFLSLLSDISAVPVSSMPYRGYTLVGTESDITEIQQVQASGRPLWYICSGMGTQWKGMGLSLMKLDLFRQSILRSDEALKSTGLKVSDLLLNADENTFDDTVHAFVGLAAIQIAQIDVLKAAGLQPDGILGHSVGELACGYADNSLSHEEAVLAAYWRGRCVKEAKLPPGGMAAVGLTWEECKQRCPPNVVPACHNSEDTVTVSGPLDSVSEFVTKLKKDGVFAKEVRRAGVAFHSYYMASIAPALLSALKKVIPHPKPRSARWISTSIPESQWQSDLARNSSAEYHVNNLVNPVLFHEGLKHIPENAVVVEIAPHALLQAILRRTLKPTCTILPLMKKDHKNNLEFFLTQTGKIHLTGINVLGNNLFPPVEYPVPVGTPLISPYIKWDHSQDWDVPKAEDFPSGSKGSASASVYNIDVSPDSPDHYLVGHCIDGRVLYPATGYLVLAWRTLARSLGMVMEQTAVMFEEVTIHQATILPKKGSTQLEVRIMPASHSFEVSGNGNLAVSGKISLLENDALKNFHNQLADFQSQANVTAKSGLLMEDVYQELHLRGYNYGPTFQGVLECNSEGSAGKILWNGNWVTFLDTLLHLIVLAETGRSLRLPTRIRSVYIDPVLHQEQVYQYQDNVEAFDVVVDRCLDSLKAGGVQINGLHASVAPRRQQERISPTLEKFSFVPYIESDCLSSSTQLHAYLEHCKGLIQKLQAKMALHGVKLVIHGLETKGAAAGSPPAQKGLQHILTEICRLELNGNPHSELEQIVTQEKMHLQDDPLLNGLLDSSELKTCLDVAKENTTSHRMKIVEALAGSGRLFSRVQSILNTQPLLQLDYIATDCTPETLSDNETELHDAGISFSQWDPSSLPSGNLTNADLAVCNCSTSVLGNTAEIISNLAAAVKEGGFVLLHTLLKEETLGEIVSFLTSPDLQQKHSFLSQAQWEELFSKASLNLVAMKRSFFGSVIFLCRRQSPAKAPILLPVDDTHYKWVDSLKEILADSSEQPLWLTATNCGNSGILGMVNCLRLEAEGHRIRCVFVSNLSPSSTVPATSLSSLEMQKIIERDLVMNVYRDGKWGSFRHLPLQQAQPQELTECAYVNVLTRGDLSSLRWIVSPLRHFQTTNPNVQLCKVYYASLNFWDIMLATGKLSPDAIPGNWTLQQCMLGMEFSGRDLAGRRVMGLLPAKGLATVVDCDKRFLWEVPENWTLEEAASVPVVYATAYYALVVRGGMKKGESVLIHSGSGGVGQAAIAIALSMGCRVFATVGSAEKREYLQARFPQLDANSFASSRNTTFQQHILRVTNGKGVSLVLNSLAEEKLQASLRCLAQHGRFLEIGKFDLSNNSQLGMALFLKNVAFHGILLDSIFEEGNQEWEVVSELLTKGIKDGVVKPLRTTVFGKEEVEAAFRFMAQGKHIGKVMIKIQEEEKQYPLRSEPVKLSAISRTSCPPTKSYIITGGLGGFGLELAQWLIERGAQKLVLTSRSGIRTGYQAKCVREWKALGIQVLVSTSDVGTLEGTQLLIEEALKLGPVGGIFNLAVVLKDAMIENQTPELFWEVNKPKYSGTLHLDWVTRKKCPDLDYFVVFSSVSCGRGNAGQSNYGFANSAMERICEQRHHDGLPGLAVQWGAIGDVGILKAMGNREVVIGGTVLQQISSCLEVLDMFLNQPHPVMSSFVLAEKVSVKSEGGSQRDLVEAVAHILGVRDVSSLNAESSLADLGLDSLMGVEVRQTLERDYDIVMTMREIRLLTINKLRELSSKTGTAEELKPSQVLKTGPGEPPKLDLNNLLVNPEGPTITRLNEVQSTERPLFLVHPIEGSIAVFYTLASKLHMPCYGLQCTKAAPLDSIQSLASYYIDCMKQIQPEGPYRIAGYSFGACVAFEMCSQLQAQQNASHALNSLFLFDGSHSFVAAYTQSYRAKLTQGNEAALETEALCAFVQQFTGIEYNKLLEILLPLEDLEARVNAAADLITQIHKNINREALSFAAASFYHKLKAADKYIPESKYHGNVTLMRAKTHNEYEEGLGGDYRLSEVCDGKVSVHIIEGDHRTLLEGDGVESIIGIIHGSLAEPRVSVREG

Fatty acid synthase [5] = target: T3, Fatty acid synthase (Homo sapiens, UniProt P49327); assay: Inhibition of FASN in human A375 cells; assay type: cell-based, A-375
T3 sequence (P49327 whole entry): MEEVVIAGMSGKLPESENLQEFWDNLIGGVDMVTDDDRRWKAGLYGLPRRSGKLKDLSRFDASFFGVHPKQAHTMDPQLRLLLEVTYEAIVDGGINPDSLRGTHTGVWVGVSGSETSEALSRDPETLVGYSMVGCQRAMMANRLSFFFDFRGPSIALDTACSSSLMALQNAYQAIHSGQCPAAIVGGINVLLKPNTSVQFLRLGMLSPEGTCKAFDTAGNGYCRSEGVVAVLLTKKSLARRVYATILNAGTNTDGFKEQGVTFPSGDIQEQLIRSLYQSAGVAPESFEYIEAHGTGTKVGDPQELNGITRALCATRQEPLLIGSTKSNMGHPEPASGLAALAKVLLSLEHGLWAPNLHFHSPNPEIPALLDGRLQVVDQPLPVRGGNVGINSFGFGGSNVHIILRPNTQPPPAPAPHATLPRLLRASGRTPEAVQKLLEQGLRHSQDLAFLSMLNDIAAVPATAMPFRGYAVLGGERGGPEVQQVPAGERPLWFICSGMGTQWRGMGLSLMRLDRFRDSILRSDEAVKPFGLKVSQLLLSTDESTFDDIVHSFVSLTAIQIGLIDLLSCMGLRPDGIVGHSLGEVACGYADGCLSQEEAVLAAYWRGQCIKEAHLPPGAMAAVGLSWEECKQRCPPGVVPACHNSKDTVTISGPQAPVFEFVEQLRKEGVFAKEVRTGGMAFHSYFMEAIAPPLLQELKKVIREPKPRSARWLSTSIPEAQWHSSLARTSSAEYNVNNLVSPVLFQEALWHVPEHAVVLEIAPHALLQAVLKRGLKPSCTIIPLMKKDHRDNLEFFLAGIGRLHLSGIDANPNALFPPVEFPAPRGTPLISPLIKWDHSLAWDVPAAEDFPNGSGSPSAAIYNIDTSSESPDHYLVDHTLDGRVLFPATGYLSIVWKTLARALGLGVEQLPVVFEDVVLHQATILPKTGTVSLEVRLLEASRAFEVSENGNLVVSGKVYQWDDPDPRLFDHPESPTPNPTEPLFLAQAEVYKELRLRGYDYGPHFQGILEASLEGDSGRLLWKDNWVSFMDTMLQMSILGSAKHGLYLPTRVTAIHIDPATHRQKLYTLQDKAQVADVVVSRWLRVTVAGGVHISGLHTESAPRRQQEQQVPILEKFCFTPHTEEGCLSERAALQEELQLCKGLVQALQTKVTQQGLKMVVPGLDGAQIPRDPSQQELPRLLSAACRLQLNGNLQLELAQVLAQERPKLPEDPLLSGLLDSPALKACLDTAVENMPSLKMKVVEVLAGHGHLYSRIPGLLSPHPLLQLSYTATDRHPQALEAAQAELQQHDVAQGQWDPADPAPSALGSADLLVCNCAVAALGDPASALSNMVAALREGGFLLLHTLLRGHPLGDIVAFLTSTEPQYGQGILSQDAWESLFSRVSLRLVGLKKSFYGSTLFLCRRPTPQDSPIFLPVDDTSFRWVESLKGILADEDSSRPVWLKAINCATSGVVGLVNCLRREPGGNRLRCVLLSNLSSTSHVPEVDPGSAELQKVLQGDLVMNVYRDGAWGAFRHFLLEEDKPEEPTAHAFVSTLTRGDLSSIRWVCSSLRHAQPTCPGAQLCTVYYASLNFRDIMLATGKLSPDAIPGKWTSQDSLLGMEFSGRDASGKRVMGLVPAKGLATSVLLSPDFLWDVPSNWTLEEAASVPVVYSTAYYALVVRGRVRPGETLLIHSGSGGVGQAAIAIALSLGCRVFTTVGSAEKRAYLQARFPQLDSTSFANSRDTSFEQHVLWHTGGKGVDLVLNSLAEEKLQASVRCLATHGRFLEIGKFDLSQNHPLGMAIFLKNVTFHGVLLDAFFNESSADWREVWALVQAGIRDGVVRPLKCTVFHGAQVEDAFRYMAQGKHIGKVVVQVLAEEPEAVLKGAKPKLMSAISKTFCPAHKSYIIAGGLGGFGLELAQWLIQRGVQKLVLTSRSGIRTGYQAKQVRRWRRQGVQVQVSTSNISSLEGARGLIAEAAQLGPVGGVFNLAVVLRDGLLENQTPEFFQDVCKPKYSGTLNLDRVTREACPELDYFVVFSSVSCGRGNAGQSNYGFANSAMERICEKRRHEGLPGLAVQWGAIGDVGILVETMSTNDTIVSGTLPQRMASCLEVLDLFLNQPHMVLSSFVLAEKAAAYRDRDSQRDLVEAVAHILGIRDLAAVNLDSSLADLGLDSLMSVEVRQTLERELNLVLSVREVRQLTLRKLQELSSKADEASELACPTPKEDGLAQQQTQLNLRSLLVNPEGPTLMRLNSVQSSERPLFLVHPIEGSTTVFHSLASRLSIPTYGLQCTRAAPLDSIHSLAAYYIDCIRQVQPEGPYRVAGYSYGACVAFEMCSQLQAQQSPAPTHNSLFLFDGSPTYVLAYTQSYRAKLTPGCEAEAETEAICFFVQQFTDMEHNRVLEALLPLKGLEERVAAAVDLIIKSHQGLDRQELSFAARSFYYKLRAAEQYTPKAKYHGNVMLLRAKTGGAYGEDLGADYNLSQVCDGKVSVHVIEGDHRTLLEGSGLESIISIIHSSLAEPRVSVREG

Fatty acid synthase [6] = target: T2, Fatty acid synthase; assay: Inhibition of chicken liver FASN ketoreductase activity
HepG2 = assay: Cytotoxicity against human HepG2 cells by MTT assay; assay type: functional, cell-based
ATP-citrate synthase [7] = target: T4, ATP-citrate synthase (Rattus norvegicus, UniProt P16638)
T4 sequence (P16638 whole entry): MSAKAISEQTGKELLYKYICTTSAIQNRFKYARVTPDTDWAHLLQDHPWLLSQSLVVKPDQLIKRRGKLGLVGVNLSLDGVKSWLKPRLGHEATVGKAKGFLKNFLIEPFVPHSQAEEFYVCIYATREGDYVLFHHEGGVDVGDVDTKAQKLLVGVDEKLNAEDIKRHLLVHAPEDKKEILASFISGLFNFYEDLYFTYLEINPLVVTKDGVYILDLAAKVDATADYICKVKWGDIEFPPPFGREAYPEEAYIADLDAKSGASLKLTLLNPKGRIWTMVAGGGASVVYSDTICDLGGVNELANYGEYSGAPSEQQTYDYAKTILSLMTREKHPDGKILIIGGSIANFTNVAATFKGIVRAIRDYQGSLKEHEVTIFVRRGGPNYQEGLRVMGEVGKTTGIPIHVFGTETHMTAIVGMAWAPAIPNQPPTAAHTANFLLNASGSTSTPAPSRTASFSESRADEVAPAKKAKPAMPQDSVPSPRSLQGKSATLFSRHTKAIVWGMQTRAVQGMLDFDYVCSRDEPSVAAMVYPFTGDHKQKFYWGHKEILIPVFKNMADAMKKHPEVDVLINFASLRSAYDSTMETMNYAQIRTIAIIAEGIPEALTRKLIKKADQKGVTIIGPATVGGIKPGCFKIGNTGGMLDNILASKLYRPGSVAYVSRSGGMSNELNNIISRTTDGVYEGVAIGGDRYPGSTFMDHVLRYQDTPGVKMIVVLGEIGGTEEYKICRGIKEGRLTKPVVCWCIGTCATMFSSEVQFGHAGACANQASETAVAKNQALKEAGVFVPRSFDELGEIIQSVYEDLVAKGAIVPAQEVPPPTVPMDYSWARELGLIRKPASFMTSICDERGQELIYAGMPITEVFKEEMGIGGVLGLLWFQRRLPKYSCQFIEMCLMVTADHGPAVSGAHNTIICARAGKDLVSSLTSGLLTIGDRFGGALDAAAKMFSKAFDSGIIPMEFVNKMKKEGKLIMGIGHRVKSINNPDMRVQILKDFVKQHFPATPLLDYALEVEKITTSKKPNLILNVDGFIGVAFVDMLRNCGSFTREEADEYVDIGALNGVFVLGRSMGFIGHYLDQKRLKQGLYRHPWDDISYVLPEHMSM
Description: Inhibition of rat liver ACLY

[8] = Inhibition of Ustilago maydis recombinant ACC expressed in Escherichia coli BL21(DE3) using acetyl coA as substrate and [14C]NaHCO3 incubated for 10 mins prior to substrate addition by liquid scintillation counting; set-up: species or system Mycosarcoma maydis
[9] = Inhibition of acetyl coA carboxylase in human MCF7 cells; assay type: cell-based
Fatty acid synthase [10] = target: T3, Fatty acid synthase; assay: Inhibition of human recombinant FASN thioesterase domain

`Cc1cn(-c2cc(Cl)ccc2CCCCCC[C@H](O)C[C@@](O)(CC(=O)O)C(=O)O)cc1C` (stereo in doubt; 134) gave a Ki (ATP-citrate synthase [1]) of 0.58 µM.
With `Cc1cn(-c2cc(Cl)ccc2CCCCCC[C@H](O)C[C@@](O)(CC(=O)O)C(=O)O)cc1C` (stereo in doubt; 135) the Ki (ATP-citrate synthase [1]) was 0.34 µM.
For `O=C(O[C@@H]1Cc2c(O)cc(O)cc2O[C@H]1c1ccc(O)c(O)c1)c1cc(O)c(O)c(O)c1` [(-)-CATECHINGALLATE], the IC50 [2] was 3.4 µM and the IC50 [3] was 30.1 µM.
With `O=c1c(O[C@@H]2O[C@@H](CO)[C@H](O)[C@H]2O)c(-c2ccc(O)c(O)c2)oc2cc(O)cc(O)c12` [AVICULARIN] the IC50 (Fatty acid synthase [4]) was 6.15 µM.
`C/C=C/C/C=C/CCC(=O)[C@H]1O[C@H]1C(N)=O` [CERULENIN] showed an IC50 (Fatty acid synthase [5]) of 21.9 µM.
`O=C(O[C@@H]1Cc2c(O)cc(O)cc2O[C@@H]1c1cc(O)c(O)c(O)c1)c1cc(O)c(O)c(O)c1` [EPIGALOCATECHIN GALLATE] gave an IC50 (Fatty acid synthase [4]) of 52 µM and an IC50 (Fatty acid synthase [6]) of 100 µM.
In the case of `O=c1c(O)c(-c2ccc(O)c(O)c2)oc2cc(O)ccc12` [FISETIN], the IC50 [2] is reported as 18.8 µM and the IC50 (HepG2) is reported as > 400 µM.
In the case of `O=C(/C=C/c1ccc(O)cc1)c1ccc(O)cc1O` [ISOLIQUIRITIGENIN], the IC50 [2] is reported as 8.8 µM and the IC50 [3] is reported as 141 µM.
With `O=c1c(O)c(-c2ccc(O)cc2)oc2cc(O)cc(O)c12` [KAEMPFEROL] the IC50 [2] was 10.4 µM and the IC50 (HepG2) was > 400 µM.
For `O=c1cc(-c2ccc(O)c(O)c2)oc2cc(O)cc(O)c12` [LUTEOLIN], the IC50 [2] was 2.52 µM and the IC50 (HepG2) was 71.2 µM.
`O=c1c(O)c(-c2ccc(O)cc2O)oc2cc(O)cc(O)c12` [MORIN] gave an IC50 [2] of 2.3 µM and an IC50 [3] of 26 µM.
`CC(Cc1ccc(O)c(O)c1)C(C)Cc1ccc(O)c(O)c1` (centres undefined) [NORDIHYDROGUAIARETIC ACID] showed an IC50 [2] of 9.3 µM and an IC50 [3] of 427 µM.
Compound `O=C1C(c2ccc(O)c(O)c2)=c2c(c3c(n2CCc2ccc(O)cc2)=C(c2ccc(O)c(O)c2)C(=O)c2cc(O)c(O)cc2-3)-c2cc(O)c(O)cc21` [PURPURONE] has an IC50 (ATP-citrate synthase [7]) of 7 µM.
`O=c1c(O)c(-c2ccc(O)c(O)c2)oc2cc(O)cc(O)c12` [QUERCETIN] gave an IC50 [2] of 4.29 µM and an IC50 (HepG2) of 30.9 µM.
In the case of `Oc1ccc(/C=C/c2cc(O)cc(O)c2)cc1` [RESVERATROL], the IC50 [2] is reported as 8.5 µM and the IC50 [3] is reported as 120 µM.
Compound `CO[C@H]1CCCC[C@@H](c2ccccc2)OC(=O)[C@@H](C)[C@@]2(O)O[C@H]([C@@H](C)[C@H](O)[C@H]2OC)[C@@H](C)/C=C/[C@H]1OC` [SORAPHEN A] has a Ki [8] of 0.0021 µM.
`CCCCCCCCCCCCCCOc1ccc(C(=O)O)o1` [TOFA] showed an IC50 [9] of 12.3 µM.
`C[C@H]1[C@H](C)CC[C@]2(C(=O)O)CC[C@]3(C)C(=CC[C@@H]4[C@@]5(C)CC[C@H](O)C(C)(C)[C@@H]5CC[C@]43C)[C@H]12` [URSOLIC ACID] showed an IC50 (Fatty acid synthase [4]) of 13.1 µM and an IC50 (Fatty acid synthase [6]) of 59.3 µM.
H-EITPEKNPQLR-OH showed an IC50 (Fatty acid synthase [10]) of 10 µM and an IC50 (Fatty acid synthase [6]) of 27 µM.
With H-KNPQLR-OH the IC50 (Fatty acid synthase [6]) was 80 µM.
Compound H-RKQEEDEDEEQQRE-OH has an IC50 (Fatty acid synthase [10]) of 11 µM and an IC50 (Fatty acid synthase [6]) of 16 µM.
